Laboratory results from patent US20250099557A1, “ANTIBIOTIC PHARMACEUTICAL COMPOSITION CAPABLE OF SUBCUTANEOUS ADMINISTRATION” (SHANGHAI BAO PHARMACEUTICALS CO., LTD., priority 2021, published 2025).

Tests used:
HAase = target: T1, HAase (Homo sapiens, UniProt P38567); assay: Compatibility study of HAase and antibiotic in solution: HAase activity; assay type: biochemical; settings: 15 min room temperature; for Final concentration of HAase (units/ml) 150: HAase added to 150 units/ml; for Final concentration of HAase (units/ml) 500: HAase added to 500 units/ml; for Final concentration of HAase (units/ml) 2000: HAase added to 2000 units/ml; for Final concentration of HAase (units/ml) 6000: HAase added to 6000 units/ml
T1 construct: made in house
T1 sequence (P38567 36-482): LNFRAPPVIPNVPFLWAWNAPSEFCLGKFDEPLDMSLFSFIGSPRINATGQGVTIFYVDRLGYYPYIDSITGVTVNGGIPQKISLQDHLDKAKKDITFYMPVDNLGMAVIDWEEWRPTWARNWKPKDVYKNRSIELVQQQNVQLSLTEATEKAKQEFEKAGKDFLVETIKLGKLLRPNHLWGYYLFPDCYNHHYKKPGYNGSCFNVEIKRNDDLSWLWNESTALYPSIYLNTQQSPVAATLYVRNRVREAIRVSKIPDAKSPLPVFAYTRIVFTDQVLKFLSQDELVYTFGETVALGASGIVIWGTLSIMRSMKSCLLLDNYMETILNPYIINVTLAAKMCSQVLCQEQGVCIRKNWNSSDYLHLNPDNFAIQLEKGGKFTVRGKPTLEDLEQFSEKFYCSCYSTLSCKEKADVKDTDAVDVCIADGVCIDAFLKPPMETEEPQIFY

intestinal flora = assay: Effects of administration routes on the diversity of intestinal flora in mice (16S rDNA sequencing, OTU); assay type: in vivo; settings: C57BL/6 mice, feces
Text: 12 SPF grade C57BL/6 mice were used for each antibiotic mode, and divided into two groups, each having 6 mice. The two groups include an oral administration group, and a subcutaneous administration group combined with recombinant human HAase. A blank control group including 6 mice was also set. The mice in the oral administration group were given the model antibiotic solution by oral gavage for five consecutive days. The mice in the subcutaneous administration group combined with recombinant human HAase were given the same dose of model antibiotic as that in the oral administration group by subcutaneous administration for five consecutive days. The feces of mice in each group were collected on the 1 st, 2nd, 3rd, 4th, 5th, 6th, 8th, 10th and 14th days after five consecutive days of administration, and stored at −80° C., for detecting the microbial diversity later. The fecal samples of each group were amplified and sequenced by 16S rDNA sequencing. After DNA extraction, PCR amplification and gene sequencing, the changes of intestinal bacterial diversity in each group of mice were analyzed. The relative species diversity of the test group was calculated, with the OUT value of the blank control group in each day as a reference, as shown in Table 33.

[1] = antibiotic 10 mg/ml in physiological saline
[2] = antibiotic 70 mg/ml in physiological saline

## Teicoplanin
HAase; [1]
  Final concentration of HAase (units/ml) 150: 160 units/ml
  Final concentration of HAase (units/ml) 500: 488 units/ml
  Final concentration of HAase (units/ml) 2000: 1972 units/ml
  Final concentration of HAase (units/ml) 6000: 6033 units/ml
HAase; [2]
  Final concentration of HAase (units/ml) 150: 152 units/ml
  Final concentration of HAase (units/ml) 500: 498 units/ml
  Final concentration of HAase (units/ml) 2000: 1961 units/ml
  Final concentration of HAase (units/ml) 6000: 5979 units/ml
HAase; antibiotic and HAase in physiological saline
  interference with the activity of HAase: does not interfere with the activity of HAase
Intestinal flora; in combination with recombinant human HAase for subcutaneous administration, five consecutive days, D1 after administration
  Relative abundance of OUT (operational taxonomic units): 51.8%
Intestinal flora; in combination with recombinant human HAase for subcutaneous administration, five consecutive days, D2
  Relative abundance of OUT (operational taxonomic units): 56.0%
Intestinal flora; in combination with recombinant human HAase for subcutaneous administration, five consecutive days, D3
  Relative abundance of OUT (operational taxonomic units): 53.7%
Intestinal flora; in combination with recombinant human HAase for subcutaneous administration, five consecutive days, D4
  Relative abundance of OUT (operational taxonomic units): 56.3%
Intestinal flora; in combination with recombinant human HAase for subcutaneous administration, five consecutive days, D5
  Relative abundance of OUT (operational taxonomic units): 51.2%
Intestinal flora; in combination with recombinant human HAase for subcutaneous administration, five consecutive days, D6
  Relative abundance of OUT (operational taxonomic units): 55.4%
Intestinal flora; in combination with recombinant human HAase for subcutaneous administration, five consecutive days, D8
  Relative abundance of OUT (operational taxonomic units): 63.7%
Intestinal flora; in combination with recombinant human HAase for subcutaneous administration, five consecutive days, D10
  Relative abundance of OUT (operational taxonomic units): 64.8%
Intestinal flora; in combination with recombinant human HAase for subcutaneous administration, five consecutive days, D14
  Relative abundance of OUT (operational taxonomic units): 71.7%
Intestinal flora; oral administration for five consecutive days, D1 after administration
  Relative abundance of OUT (operational taxonomic units): 44.7%
Intestinal flora; oral administration for five consecutive days, D2
  Relative abundance of OUT (operational taxonomic units): 41.9%
Intestinal flora; oral administration for five consecutive days, D3
  Relative abundance of OUT (operational taxonomic units): 39.8%
Intestinal flora; oral administration for five consecutive days, D4
  Relative abundance of OUT (operational taxonomic units): 41.2%
Intestinal flora; oral administration for five consecutive days, D5
  Relative abundance of OUT (operational taxonomic units): 39.4%
Intestinal flora; oral administration for five consecutive days, D6
  Relative abundance of OUT (operational taxonomic units): 41.1%
Intestinal flora; oral administration for five consecutive days, D8
  Relative abundance of OUT (operational taxonomic units): 46.3%
Intestinal flora; oral administration for five consecutive days, D10
  Relative abundance of OUT (operational taxonomic units): 45.9%
Intestinal flora; oral administration for five consecutive days, D14
  Relative abundance of OUT (operational taxonomic units): 49.7%
